Measurements: patent US20260007667A1, “TOPICAL ECTODERMAL STIMULATION” (SOLIFON PHARMACEUTICALS, INC., priority 2022, published 2026)

Tested on: patients suffering hair loss and numbness due to diabetic neuropathy
Test: Repetitive topical application of minoxidil in patients suffering hair loss and numbness due to diabetic neuropathy
Assay type: in vivo
Details: twice a day, approximately 1 mL per day, 2-5% minoxidil
Procedure: In an illustrative test with repetitive topical application of minoxidil as a VGIA 120a in patients suffering hair loss and numbness due to diabetic neuropathy, hair growth, nail growth, and temperature perception (restoration of innervation) was achieved on the leg within 2-3 weeks. The minoxidil was applied twice a day in a quantity of approximately 1 mL per day in a concentration of 2-5% minoxidil.

Nc1cc(N2CCCCC2)nc(N)[n+]1[O-] [minoxidil]
2-3 weeks: hair growth achieved on the leg (time) | temperature perception (restoration of innervation) achieved on the leg (time) | nail growth achieved (time) (leg)
